According to patent US9995734B2, “Human T cell line assay for evaluating the immunologic identity of glatiramer acetate preparations” (Mylan Inc., priority 2013, dated 2018):

Test system: Donor 1 COP T-Cell Lines
Assay: Multiplex bead cytokine assay (FlowCytoMix), Donor 1 COP T-cell lines
Format: cell-based, human
Method: Culture medium was removed from cultures prepared as for proliferation assay and utilized to measure cytokine production. In most cases culture medium was collected 18-24 hours after mixing T-cells, APC, and stimulating antigen. Cytokine production was measured by ELISA or bead assay. For measuring cytokine production, 100-150 μL culture medium (100 μL if culture was to be continued, otherwise 150 μL) was removed from each well. In some cases, the culture was continued 48 hours, for a total of 72 hours of culture, and the proliferative response measured.
The concentration of multiple cytokines was measured simultaneously using FlowCytoMix™ kits (eBioscience, San Diego Calif.). These are fluorescent bead based assays consisting of beads conjugated to anti cytokine antibodies. Beads specific for each cytokine are distinguished by size and fluorescence at 670 run. Cytokine bound to each bead is detected using a phycoerythrin conjugated antibody so that the fluorescence at 585 nm reflects the concentration of cytokine in the sample. Two kits were utilized which measured different cytokine panels. The TH1/TH2 kit measures IFN-γ, IL-1β, IL-2, IL-4, IL-5, IL-6, IL-8, IL-10, IL-12p70, TNF-α (TNF) and TNF-β (LT). The TH1/TH2/TH9/TH17/TH22 kit measures […], IL-1β, IL-2, IL-4, IL-5, IL-6, IL-9, IL-10, IL-12p70, IL-13, IL-17, IL-22, and TNF-α (TNF). Both kits were used following the manufacturer's instructions.
IL-12p70, IFN-γ, IL-2, IL-10, IL-8, IL-6, IL-5, IL-4, IL-1β, TNF-α (TNF), and TNF-β (LT) secretion were measured in response to stimulation with 1, 3, or 10 μg/mL GMA, or 1, 3, or 10 μg/mL COP, as well as a no-antigen control and an MBP control, in the presence of autologous EBV-transformed B-LCL.

[1] = 222-1C5, 1 μg/mL, 24 hours after Day 56 restimulation
[2] = 222-1C5, 3 μg/mL, 24 hours after Day 56 restimulation
[3] = 222-1C5, 10 μg/mL, 24 hours after Day 56 restimulation
[4] = 222-1C5, 10 μg/mL, Day 34 supernatants
[5] = 222-1H12, 10 μg/mL, Day 34 supernatants
[6] = 222-2B8, 1 μg/mL, 24 hours after Day 56 restimulation
[7] = 222-2B8, 3 μg/mL, 24 hours after Day 56 restimulation
[8] = 222-2B8, 10 μg/mL, 24 hours after Day 56 restimulation
[9] = 222-2D2, 10 μg/mL, Day 34 supernatants
[10] = 222-2D8, 10 μg/mL, Day 34 supernatants
[11] = 222-2E1, 1 μg/mL, 24 hours after Day 56 restimulation
[12] = 222-2E1, 3 μg/mL, 24 hours after Day 56 restimulation
[13] = 222-2E1, 10 μg/mL, 24 hours after Day 56 restimulation
[14] = 222-B11 (so in the source), 1 μg/mL, 24 hours after Day 56 restimulation
[15] = 222-B11 (so in the source), 3 μg/mL, 24 hours after Day 56 restimulation
[16] = 222-B11 (so in the source), 10 μg/mL, 24 hours after Day 56 restimulation

Substance glatiramer acetate [GMA] has an IFN-γ [1] of 181 pg/mL, an IL-2 [1] of 30 pg/mL and an IL-5 [1] of 0 pg/mL. The IL-10 [1] was 11 pg/mL, the IL-13 [1] was 154 pg/mL and the IL-22 [1] was 39 pg/mL. It also gave a TNF-α [1] of 3 pg/mL, an IFN-γ [2] of 325 pg/mL and an IL-2 [2] of 83 pg/mL. The IL-5 [2] was 0 pg/mL, the IL-10 [2] was 38 pg/mL and the IL-13 [2] was 316 pg/mL. For the same substance, the IL-22 [2] was 101 pg/mL, the TNF-α [2] was 72 pg/mL and the IFN-γ [3] was 664 pg/mL. For the same substance, the IL-2 [3] was 0 pg/mL, the IL-5 [3] was 0 pg/mL and the IL-10 [3] was 55 pg/mL. For the same substance, the IL-13 [3] was 942 pg/mL, the IL-22 [3] was 0 pg/mL and the TNF-α [3] was 80 pg/mL. It also gave an IFN-γ [4] of 511.42 pg/mL, an IL-1β [4] of 94.12 pg/mL and an IL-2 [4] of 185.35 pg/mL. The IL-5 [4] was 67.83 pg/mL, the IL-8 [4] was “<= 0 pg/mL” and the IL-10 [4] was 77.88 pg/mL. It also gave a TNF-α [4] of 31.35 pg/mL, a TNF-β [4] of 29.94 pg/mL and an IFN-γ [5] of 3138 pg/mL. For the same substance, the IL-1β [5] was 20 pg/mL, the IL-2 [5] was 152 pg/mL and the IL-4 [5] was 99 pg/mL. The IL-5 [5] was 336 pg/mL, the IL-10 [5] was 234 pg/mL and the TNF-α [5] was 83 pg/mL. The TNF-β [5] was 102 pg/mL, the IFN-γ [6] was 1.88 pg/mL and the IL-2 [6] was 0 pg/mL. The IL-5 [6] was 0 pg/mL, the IL-10 [6] was 0 pg/mL and the IL-13 [6] was 183.09 pg/mL. It also gave an IL-22 [6] of 0 pg/mL, a TNF-α [6] of 0 pg/mL and an IFN-γ [7] of 44.52 pg/mL. It also gave an IL-2 [7] of 1.6 pg/mL, an IL-5 [7] of 78.29 pg/mL and an IL-10 [7] of 1.8 pg/mL. It also gave an IL-13 [7] of 1214.45 pg/mL, an IL-22 [7] of 63.98 pg/mL and a TNF-α [7] of 0 pg/mL. The IFN-γ [8] was 140.65 pg/mL, the IL-2 [8] was 0 pg/mL and the IL-5 [8] was 400.46 pg/mL. The IL-10 [8] was 41 pg/mL, the IL-13 [8] was 3162.51 pg/mL and the IL-22 [8] was 124.15 pg/mL. It also gave a TNF-α [8] of 96.57 pg/mL, an IFN-γ [9] of 53.75 pg/mL and an IL-1β [9] of 103.85 pg/mL. The IL-2 [9] was 55.42 pg/mL, the IL-5 [9] was 29.13 pg/mL and the IL-8 [9] was “<= 0 pg/mL”. The IL-10 [9] was 26.12 pg/mL, the TNF-α [9] was 5.35 pg/mL and the TNF-β [9] was 5.79 pg/mL. For the same substance, the “IL-4, IL-6, or IL-12 detected” value (222-2D8, 222-1H12, 222-1C5, 222-2D2, Day 34 supernatants) was “Little or no”, the IFN-γ [10] was 2616 pg/mL and the IL-1β [10] was 2420 pg/mL. The IL-2 [10] was 52 pg/mL, the IL-4 [10] was 41 pg/mL and the IL-5 [10] was 1501 pg/mL. It also gave an IL-10 [10] of 107 pg/mL, a TNF-α [10] of 405 pg/mL and a TNF-β [10] of 243 pg/mL. It also gave an IFN-γ [11] of 49.11 pg/mL, an IL-2 [11] of 0 pg/mL and an IL-5 [11] of 0 pg/mL. For the same substance, the IL-10 [11] was 0 pg/mL, the IL-13 [11] was 146.02 pg/mL and the IL-22 [11] was 21.77 pg/mL. The TNF-α [11] was 9.36 pg/mL, the IFN-γ [12] was 162.68 pg/mL and the IL-2 [12] was 0 pg/mL. For the same substance, the IL-5 [12] was 0 pg/mL, the IL-10 [12] was 7.1 pg/mL and the IL-13 [12] was 1050.77 pg/mL. For the same substance, the IL-22 [12] was 25.71 pg/mL, the TNF-α [12] was 65.44 pg/mL and the IFN-γ [13] was 349.76 pg/mL. It also gave an IL-2 [13] of 0 pg/mL, an IL-5 [13] of 128.4 pg/mL and an IL-10 [13] of 16.33 pg/mL. The IL-13 [13] was 2036.36 pg/mL, the IL-22 [13] was 0 pg/mL and the TNF-α [13] was 170.24 pg/mL. It also gave an IFN-γ [14] of 0 pg/mL, an IL-2 [14] of 0 pg/mL and an IL-5 [14] of 0 pg/mL. For the same substance, the IL-10 [14] was 1.3 pg/mL, the IL-13 [14] was 29.41 pg/mL and the IL-22 [14] was 42.51 pg/mL. The TNF-α [14] was 0 pg/mL, the IFN-γ [15] was 0 pg/mL and the IL-2 [15] was 0 pg/mL. It also gave an IL-5 [15] of 0 pg/mL, an IL-10 [15] of 0 pg/mL and an IL-13 [15] of 133.55 pg/mL. For the same substance, the IL-22 [15] was 51.87 pg/mL, the TNF-α [15] was 0 pg/mL and the IFN-γ [16] was 37.79 pg/mL. It also gave an IL-2 [16] of 0 pg/mL, an IL-5 [16] of 94.56 pg/mL and an IL-10 [16] of 0.4 pg/mL. For the same substance, the IL-13 [16] was 1563.22 pg/mL, the IL-22 [16] was 0 pg/mL and the TNF-α [16] was 0 pg/mL. For the same substance, the “IFN-γ production” value (Line 105 (so in the source), Table 14 = 222-1C5, after appropriate dilution of supernatants) was “comparable amounts”.
